{"source": "patent EP0546475A1", "about": "“Biologically active pseurotin A and D, new metabolites from Aspergillus fumigatus, process for their preparation and their use as apomorphine antagonists” (HOECHST AKTIENGESELLSCHAFT, priority 1991, dated 1993)", "key": {"[1]": {"experiment": "Stability in the solid state and in solution", "format": "physicochemical", "conditions": "for Stabilität im festen Zustand: solid state; for Stabilität in Lösungen: solutions, pH range between 3 and 8, in particular 5 and 7", "from_the_text": "Die Verbindungen der Formel 1 oder 11 ist im festen Zustand und in Lösungen im pH-Bereich zwischen 3 und 8, insbesondere 5 und 7, stabil und läßt sich damit in übliche galenische Zubereitungen einarbeiten."}, "[2]": {"experiment": "Solubility in organic solvents", "format": "physicochemical", "conditions": "in CH2C12, CHCl3, Essigsäureethylester, Aceton, Ethanol und Isopropanol; isolated as amorphous solid", "from_the_text": "Die Pseurotine A und D wurden als amorpher Feststoff isoliert und sind z.B. löslich in CH2C12, CHCl3, Essigsäureethylester, Aceton, Ethanol und Isopropanol."}, "[3]": {"tested_on": "durch Apomorphin verursachten Kletterns", "experiment": "Inhibition of apomorphine-induced climbing in mice (apomorphine antagonism)", "format": "in vivo, Mäusen", "conditions": "test substance given 30 min (i.p.) or 60 min (p.o.) before apomorphine, dose of test substance not given", "description": "Test auf biologische Aktivität von Pseurotin A und D: • Die Wirkung der Verbindungen der Formel I und 11 als Apomorphin Antagonisten wird an Mäusen getestet. Hierzu wird zunächst Apomorphin als 1 %ige Lösung (Verdünnungsmittel: Tylose, z. B. Methocel, Hoechst AG, Frankfurt, Deutschland)) einmalig […] injiziert. Die Dosis ist so gewählt, daß sie bei 95 % der Mäuse für ca. 30 Minuten eine anhaltende Klettertätigkeit auslöst (1,5 mg Apomorphin/kg Maus; subcutane Injektion). Tiere, die noch vor der Apomorphingabe eine konstante Klettertätigkeit aufweisen, werden nicht im Test berücksichtigt. Pseurotin A und/oder D wird 30 bzw. 60 Min. vor Apomorphin appliziert (i.p. bzw. p.o.). Es wird viermal abgelesen: unmittelbar vor sowie 10,20 und 30 Min. nach Apomorphin-Injektion. Dabei wird das Kletterverhalten pro Maus beurteilt: • Testkriterium ist, ob eine Hemmung des durch Apomorphin verursachten Kletterns eintritt."}, "[4]": {"conditions": "10 min after apomorphine (1,5 mg Apomorphin/kg Maus), seen in the majority (Mehrzahl) of treated mice"}, "[5]": {"conditions": "20 min after apomorphine (1,5 mg Apomorphin/kg Maus)"}}, "data": [{"smiles": "CC/C=C\\[C@H](O)[C@H](O)C1=C(C)C(=O)[C@]2(O1)C(=O)N[C@@](OC)(C(=O)c1ccccc1)[C@@H]2O", "note": "[Pseurotin A]", "values": [{"measurement": "Stabilität im festen Zustand", "setting": "[1]", "result": "stabil"}, {"measurement": "Stabilität in Lösungen", "setting": "[1]", "result": "stabil"}, {"measurement": "Löslichkeit", "setting": "[2]", "result": "löslich"}, {"measurement": "Kletterverhalten pro Maus (Hemmung des durch Apomorphin verursachten Kletterns)", "setting": "[3]; [4]", "result": "nur noch 1 oder 2 Pfoten an der Wand"}, {"measurement": "Kletterverhalten pro Maus (Hemmung des durch Apomorphin verursachten Kletterns)", "setting": "[3]; [5]", "result": "nahezu alle Tiere deutliche Symptome in Form der Kletterhemmung (4 Pfoten am Boden)"}]}, {"smiles": "CCC(O)C=C[C@H](O)C1=C(C)C(=O)[C@]2(O1)C(=O)N[C@@](OC)(C(=O)c1ccccc1)[C@@H]2O", "note": "(stereo partly shown) [Pseurotin D]", "values": [{"measurement": "Stabilität im festen Zustand", "setting": "[1]", "result": "stabil"}, {"measurement": "Stabilität in Lösungen", "setting": "[1]", "result": "stabil"}, {"measurement": "Löslichkeit", "setting": "[2]", "result": "löslich"}, {"measurement": "Kletterverhalten pro Maus (Hemmung des durch Apomorphin verursachten Kletterns)", "setting": "[3]; [4]", "result": "nur noch 1 oder 2 Pfoten an der Wand"}, {"measurement": "Kletterverhalten pro Maus (Hemmung des durch Apomorphin verursachten Kletterns)", "setting": "[3]; [5]", "result": "nahezu alle Tiere deutliche Symptome in Form der Kletterhemmung (4 Pfoten am Boden)"}]}]}
